Data as given in patent publication US6429317B1, “Indane derivatives for antipsychotic compositions” (priority 1996, dated 2002).
Read-outs that look alike come from different tables or passages of the source.

Assays:
human m4 receptors = target: T1, human m4 receptors (Homo sapiens, UniProt P08173); experiment: Cyclic AMP accumulation in pertussis toxin-treated CHO m4 cells; type: cell-based; settings: stimulation of cyclic AMP production in CHO-m4 cells, forskolin present
T1 construct: expressed in transfected cells; host or cells: CHO K1
Procedure: Cyclic AMP Accumulation in Pertussis Toxin-Treated CHO m4 Cells.
CHO K1 cells transfected with human m4 receptors were grown to near confluency in T-150 flasks using Dulbecco's Modified Eagle Medium (DMEM) containing 10% fetal bovine serum. Cells were detached with 0.05% trypsin, […], and were suspended in medium containing 100 ng/ml pertussis toxin. Cells were plated at 30,000 cells per well into 96 well plates. Eighteen to twenty hours later the medium was removed and the cells were washed with serum-free medium. Attached cells were incubated at 37° C. for one hour after addition of […] of serum free DMEM containing 1 mM 3-isobutyl-1-methylxanthine and 1 mM forskolin plus or minus drugs being tested. Incubations were terminated with […] per well of serum free DMEM containing 0.3% triton-X-100. After stopping incubations the plates were allowed to sit for 20 minutes to extract cAMP and samples were then diluted 2.5-fold and were assayed using the scintillation proximity assay of Amersham (Arlington Heights, Ill).
Representative results from the M4 assay are as follows:
Stimulation of cyclic AMP production in CHO-m4cells.

muscarinic receptor = settings: read-out: affinity of site labeled by 3H-Oxo, cited from earlier work

T1 sequence (P08173 whole entry): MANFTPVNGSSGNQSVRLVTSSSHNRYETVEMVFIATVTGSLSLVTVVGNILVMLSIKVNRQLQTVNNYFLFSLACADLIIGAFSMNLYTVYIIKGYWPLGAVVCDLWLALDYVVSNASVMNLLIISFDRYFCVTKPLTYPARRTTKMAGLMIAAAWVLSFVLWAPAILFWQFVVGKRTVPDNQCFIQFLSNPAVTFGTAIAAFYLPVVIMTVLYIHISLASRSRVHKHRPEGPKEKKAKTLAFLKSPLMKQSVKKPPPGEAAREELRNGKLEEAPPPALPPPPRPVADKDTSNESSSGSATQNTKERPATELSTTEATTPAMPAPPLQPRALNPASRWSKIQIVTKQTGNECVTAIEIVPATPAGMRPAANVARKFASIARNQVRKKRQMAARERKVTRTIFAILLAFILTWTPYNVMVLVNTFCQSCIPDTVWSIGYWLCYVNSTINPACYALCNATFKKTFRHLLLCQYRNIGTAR

O=C(NC1c2cc(N=CN3CCCCC3)ccc2CC1O)c1cccc(Cl)c1Cl (stereo not drawn) [Compound 88]
% Maximum Stimulation Compared to Oxotremorine-M (human m4 receptors): 52%

CN(C)C=Nc1ccc2c(c1)C(NC(=O)c1cc(F)cc(C(F)(F)F)c1)C(O)C2 (stereo not drawn) [Compound 64]
% Maximum Stimulation Compared to Oxotremorine-M (human m4 receptors): 52%

CN(C)C=Nc1ccc2c(c1)C(NC(=O)C1CCCC1)C(O)C2 (stereo not drawn) [Compound 62]
% Maximum Stimulation Compared to Oxotremorine-M (human m4 receptors): 27%

O=C(NC1c2cc(N=CN3CCCCC3)ccc2CC1O)c1cc(F)cc(F)c1 (stereo not drawn) [Compound 98]
% Maximum Stimulation Compared to Oxotremorine-M (human m4 receptors): 73%

CN(C)C=Nc1ccc2c(c1)C(NC(=O)c1ccc(Cl)nc1)C(O)C2 (stereo not drawn) [Compound 74]
% Maximum Stimulation Compared to Oxotremorine-M (human m4 receptors): 8%

CN(C)C=Nc1ccc2c(c1)C(NC(=O)C(F)(F)F)C(O)C2 (stereo not drawn) [Compound 66]
% Maximum Stimulation Compared to Oxotremorine-M (human m4 receptors): 0%

CC(=Nc1ccc2c(c1)C(NC(=O)c1ccc(Cl)c(Cl)c1)C(O)C2)N(C)C (stereo not drawn) [Compound 76]
% Maximum Stimulation Compared to Oxotremorine-M (human m4 receptors): 130%

CCCCc1ccc(C(=O)NC2c3cc(N=CN(C)C)ccc3CC2O)cc1 (stereo not drawn) [Compound 70]
% Maximum Stimulation Compared to Oxotremorine-M (human m4 receptors): 18%

O=C(NC1c2cc(N=CN3CCCC3)ccc2CC1O)c1c(Cl)cccc1Cl (stereo not drawn) [Compound 46]
% Maximum Stimulation Compared to Oxotremorine-M (human m4 receptors): 154%

O=C(NC1c2cc(N=CN3CCCC3)ccc2CC1O)c1c(Cl)cc(Cl)cc1Cl (stereo not drawn) [Compound 47]
% Maximum Stimulation Compared to Oxotremorine-M (human m4 receptors): <20%

O=C(NC1c2cc(N=CN3CCCCC3)ccc2CC1O)c1cc(Cl)cc(Cl)c1 (stereo not drawn) [Compound 97]
% Maximum Stimulation Compared to Oxotremorine-M (human m4 receptors): 36%

CCCCOc1ccc(C(=O)NC2c3cc(N=CN(C)C)ccc3CC2O)cc1 (stereo not drawn) [Compound 59]
% Maximum Stimulation Compared to Oxotremorine-M (human m4 receptors): 22%

CCc1ccc(C(=O)NC2c3cc(N=CN(C)C)ccc3CC2O)cc1 (stereo not drawn) [Compound 67]
% Maximum Stimulation Compared to Oxotremorine-M (human m4 receptors): 7%

CN(C)C=Nc1ccc2c(c1)C(NC(=O)c1cc(Cl)cc(Cl)c1)C(O)C2 (stereo not drawn) [Compound 58]
% Maximum Stimulation Compared to Oxotremorine-M (human m4 receptors): 74%

CN(C)C=Nc1ccc2c(c1)C(NC(=O)c1cccc3ccccc13)C(O)C2 (stereo not drawn) [Compound 71]
% Maximum Stimulation Compared to Oxotremorine-M (human m4 receptors): 95%

CN(C)C=Nc1ccc2c(c1)C(NC(=O)c1cc3ccccc3s1)C(O)C2 (stereo not drawn) [Compound 69]
% Maximum Stimulation Compared to Oxotremorine-M (human m4 receptors): 14%

CN(C)C=Nc1ccc2c(c1)C(NC(=O)c1sccc1Cl)C(O)C2 (stereo not drawn) [Compound 68]
% Maximum Stimulation Compared to Oxotremorine-M (human m4 receptors): 0%

CN(C)C=Nc1ccc2c(c1)C(NC(=O)c1cc(F)c(F)c(F)c1)C(O)C2 (stereo not drawn) [Compound 65]
% Maximum Stimulation Compared to Oxotremorine-M (human m4 receptors): 30%

CN(C)C=Nc1ccc2c(c1)C(NC(=O)c1ccc3ccccc3c1)C(O)C2 (stereo not drawn) [Compound 63]
% Maximum Stimulation Compared to Oxotremorine-M (human m4 receptors): 13%

CN(C)C=Nc1ccc2c(c1)C(NS(=O)(=O)c1ccc(Cl)c(Cl)c1)C(O)C2 (stereo not drawn) [Compound 72]
% Maximum Stimulation Compared to Oxotremorine-M (human m4 receptors): 4%

CN(C)C=Nc1ccc2c(c1)C(NC(=O)c1cc(C(F)(F)F)cc(C(F)(F)F)c1)C(O)C2 (stereo not drawn) [Compound 60]
% Maximum Stimulation Compared to Oxotremorine-M (human m4 receptors): 100%

O=C(NC1c2cc(N=CN3CCCCC3)ccc2CC1O)c1ccc(Cl)c(Cl)c1 (stereo not drawn) [Compound 77]
% Maximum Stimulation Compared to Oxotremorine-M (human m4 receptors): 214%

CCCCc1ccc(C(=O)NC2c3cc(N=CN4CCCC4)ccc3CC2O)cc1 (stereo not drawn) [Compound 45]
% Maximum Stimulation Compared to Oxotremorine-M (human m4 receptors): <20%

CN(C)C=Nc1ccc2c(c1)C(NC(=O)c1cccnc1Cl)C(O)C2 (stereo not drawn) [Compound 73]
% Maximum Stimulation Compared to Oxotremorine-M (human m4 receptors): 11%

C[N+](C)(C)CC#CCN1CCCC1=O [^3H-Oxo, ^3H-Oxotremorine-M]
Kd (muscarinic receptor; first of three sites (high affinity)): 1.8 nM | Kd (muscarinic receptor; second of three sites (medium affinity)): 20 nM | Kd (muscarinic receptor; third of three sites (low affinity)): 3000 nM

CN(C)C=Nc1ccc2c(c1)C(NC(=O)c1cccc(C#N)c1)C(O)C2 (stereo not drawn) [Compound 61]
% Maximum Stimulation Compared to Oxotremorine-M (human m4 receptors): 39%

CN(C)C=Nc1ccc2c(c1)C(NC(=O)c1ccccc1)C(O)C2 (stereo not drawn) [Compound 57]
% Maximum Stimulation Compared to Oxotremorine-M (human m4 receptors): 5%

CN(C)C=Nc1ccc2c(c1)C(NC(=O)c1ccc(C(F)(F)F)cc1)C(O)C2 (stereo not drawn) [Compound 75]
% Maximum Stimulation Compared to Oxotremorine-M (human m4 receptors): 6%
